# Assay results from ChEMBL document CHEMBL1139043, “Carbonic anhydrase inhibitors. Inhibition studies of the human secretory isoform VI with anions” (Bioorg Med Chem Lett, 2007).
# Target: Carbonic anhydrase 6 (Homo sapiens) (UniProt P23280)
# Sequence (P23280 whole entry): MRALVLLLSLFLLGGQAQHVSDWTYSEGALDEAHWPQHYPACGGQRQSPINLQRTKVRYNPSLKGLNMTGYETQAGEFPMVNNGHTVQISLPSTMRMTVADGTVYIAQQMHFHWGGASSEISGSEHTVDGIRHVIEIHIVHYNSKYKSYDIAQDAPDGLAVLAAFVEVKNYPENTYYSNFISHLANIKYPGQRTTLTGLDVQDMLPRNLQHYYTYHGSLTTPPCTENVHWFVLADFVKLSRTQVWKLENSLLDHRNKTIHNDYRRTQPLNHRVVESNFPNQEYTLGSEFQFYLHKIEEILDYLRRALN
# Description: Inhibition of full length human recombinant full length CA6 expressed in Escherichia coli BL21 by CO2 hydration method
row,SMILES,Kinact
1,O=[As](O)(O)c1ccccc1,13.9 mM
2,NS(=O)(=O)O,0.09 mM
